# Entries after “also recorded” stand apart in the source; their conditions may differ. Where a name gives a salt, the structure may show the parent alone. Read-outs that look alike come from different tables or passages of the source.
# Assays:
# LTA4 hydrolase [1] = target: T1, LTA4 hydrolase (Homo sapiens, UniProt P09960); settings: literature; cited from earlier work
# T1 sequence (P09960 1-611): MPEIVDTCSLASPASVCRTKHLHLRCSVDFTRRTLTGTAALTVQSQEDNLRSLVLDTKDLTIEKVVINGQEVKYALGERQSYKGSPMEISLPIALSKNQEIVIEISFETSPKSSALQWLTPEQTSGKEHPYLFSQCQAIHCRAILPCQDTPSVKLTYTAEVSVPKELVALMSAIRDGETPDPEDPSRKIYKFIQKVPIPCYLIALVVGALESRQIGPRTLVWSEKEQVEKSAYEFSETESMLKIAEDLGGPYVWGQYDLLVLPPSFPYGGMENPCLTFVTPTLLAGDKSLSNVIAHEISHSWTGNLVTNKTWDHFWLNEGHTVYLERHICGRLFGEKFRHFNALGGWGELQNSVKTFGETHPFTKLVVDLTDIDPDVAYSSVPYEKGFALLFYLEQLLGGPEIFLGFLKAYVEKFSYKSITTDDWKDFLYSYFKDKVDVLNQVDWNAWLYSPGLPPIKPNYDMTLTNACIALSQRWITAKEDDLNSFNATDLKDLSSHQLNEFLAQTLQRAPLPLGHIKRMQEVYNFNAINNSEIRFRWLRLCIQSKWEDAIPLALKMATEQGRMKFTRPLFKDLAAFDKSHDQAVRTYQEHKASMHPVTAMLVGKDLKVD
# [2] = target: T2, LTA4 hydrolase (epoxide hydrolase activity) (Homo sapiens, UniProt P09960); experiment: Inhibition of epoxide hydrolase activity of LTA4 hydrolase, LTA4 as substrate; type: biochemical
# T2 construct: obtained from human leukocytes and was purified to apparent homogeneity; from tissue; host or cells: human leukocytes (purified to apparent homogeneity)
# T2 sequence (P09960 1-611): T1 sequence (P09960 1-611)
# LTA4 hydrolase [3] = target: T1, LTA4 hydrolase; experiment: Inhibition of LTA4 hydrolase, amidase (aminopeptidase) activity, L-alanyl p-nitroanilide as substrate; type: biochemical; parameters: LTA4 hydrolase purified from human leukocytes; from tissue; host or cells: human leukocytes (purified enzyme); settings: for Ki: Dixon plot
# Thromboxane B2 (TXB2) = experiment: Inhibition of thromboxane B2 (TXB2) in calcium ionophore A-23187-stimulated human blood; type: cell-based
# Leukotriene B4 (LTB4) = experiment: Inhibition of leukotriene B4 (LTB4) in calcium ionophore A-23187-stimulated human blood; type: cell-based; settings: Homo sapiens
# [4] = target: cytosolic leucine aminopeptidase; experiment: Inhibition of cytosolic leucine aminopeptidase; type: biochemical
# LTA4 hydrolase [5] = target: T1, LTA4 hydrolase; experiment: Kinetic parameters of LTA4 hydrolase-catalyzed hydrolysis of LTA4 and amide substrates; type: biochemical
# Description: Several amino acid amides were assayed as substrates for LTA4 hydrolase. Yuan et al., Bioorg. & Med. Chem. Lett., 1:551 (1991).
# ^a Determined in 50 mM TrisCl, pH 7.6, in the presence of 0.1 M NaCl, […]
# LTA4 hydrolase [6] = target: T1, LTA4 hydrolase; settings: LTA4 as substrate, Radmark et al., cited from earlier work
# [7] = L-alanyl p-nitroanilide 1.5 mM, pH 8.0
# [8] = Table 3, 1 μM, read-out: % Inhibition TXB2
# [9] = Table 3, 3 μM, read-out: % Inhibition TXB2
# [10] = Table 3, 10 μM, read-out: % Inhibition TXB2
# [11] = Table 4, 10 μM, read-out: % Inhibition TXB2
# [12] = Table 3, read-out: % Inhibition LTB4
# [13] = Table 4, read-out: % Inhibition LTB4
# [14] = L-alanyl p-nitroanilide 1.5 mM, pH 8.0, thiols with 5 mM DTT
# [15] = Table 5, read-out: IC50 Epoxide Hydrolase
# [16] = read-out: % Inhibition LTB4, Table 3
# [17] = Table 1, 50 mM TrisCl, pH 7.6, 0.1 M NaCl
smiles,measurement,setting,value
CC(C)C[C@H](NC(=O)[C@@H](O)[C@H](N)Cc1ccccc1)C(=O)O [Bestatin],"inhibition of LTA4 hydrolase, type of inhibition (in words)",LTA4 hydrolase [1],reversible inhibitors
"C[C@H](CS)C(=O)N1CCC[C@H]1C(=O)O [Captopril, reference compound]","inhibition of LTA4 hydrolase, type of inhibition (in words)",LTA4 hydrolase [1],reversible inhibitors
same,IC50,[2],240 µM
"COC(=O)[C@H](O)[C@@H](N)Cc1ccccc1 [Compound 1, (2R, 3S)-AHPA methyl ester]",inhibition of LTA4 hydrolase (in words),LTA4 hydrolase [3],poor or no inhibition
"COC(=O)[C@@H](O)[C@@H](N)Cc1ccccc1 [Compound 2, (2S, 3S)-AHPA methyl ester]",Ki,LTA4 hydrolase [3]; [7],50 µM
"COC(=O)[C@@H](O)[C@H](N)Cc1ccccc1 [Compound 3, (2S, 3R)-AHPA methyl ester]",inhibition of LTA4 hydrolase (in words),LTA4 hydrolase [3],poor or no inhibition; also recorded: exhibited no activity
"COC(=O)[C@H](O)[C@H](N)Cc1ccccc1 [Compound 4, (2R, 3R)-AHPA methyl ester]",inhibition of LTA4 hydrolase (in words),LTA4 hydrolase [3],poor or no inhibition
"N[C@@H](Cc1ccccc1)[C@H](O)C(=O)O [Compound 5, (2S,3S)-AHPA]",inhibition of LTA4 hydrolase (in words),LTA4 hydrolase [3],loss of their inhibition potency
"N[C@H](Cc1ccccc1)[C@H](O)C(=O)O [Compound 6, (2S,3R)-AHPA]",inhibition of LTA4 hydrolase (in words),LTA4 hydrolase [3],loss of their inhibition potency
"CC(C)C[C@H](NC(=O)[C@@H](O)[C@@H](N)Cc1ccccc1)C(=O)O [Compound 7, (2S, 3S)-AHPA-L-Leu]",inhibition at 1 µM,Thromboxane B2 (TXB2); [8],21%
same,inhibition at 3 µM,Thromboxane B2 (TXB2); [9],15%
same,inhibition at 10 µM,Thromboxane B2 (TXB2); [10],24%
same,inhibition at 10 µM,Thromboxane B2 (TXB2); [11],0%
same,inhibition at 3 µM,Leukotriene B4 (LTB4); [12],10%
same,inhibition at 10 µM,Leukotriene B4 (LTB4); [12],37%
same,inhibition at 10 µM,Leukotriene B4 (LTB4); [13],25%
"N[C@@H](Cc1ccccc1)[C@H](O)C(=O)NCC(=O)O [Compound 8, (2S, 3S) -AHPA-Gly]",Ki,LTA4 hydrolase [3]; [7],15 µM
same,IC50,LTA4 hydrolase [3]; [14],15 µM
N[C@H](Cc1ccccc1)[C@H](O)C(=O)NCCC(=O)O [Compound 9],IC50,LTA4 hydrolase [3]; [14],100 µM
"N[C@@H](Cc1ccccc1)[C@H](O)C(=O)NCCC(=O)O [Compound 10, (2S, 3S) -AHPA-β-Ala]",inhibition at 1 µM,Thromboxane B2 (TXB2); [8],12%
same,inhibition at 3 µM,Thromboxane B2 (TXB2); [9],21%
same,inhibition at 10 µM,Thromboxane B2 (TXB2); [10],19%
same,inhibition at 1 µM,Leukotriene B4 (LTB4); [12],14%
same,inhibition at 3 µM,Leukotriene B4 (LTB4); [12],39%
same,inhibition at 10 µM,Leukotriene B4 (LTB4); [12],15%
same,IC50,LTA4 hydrolase [3]; [14],80 µM
COC(=O)C(S)[C@@H](N)Cc1ccccc1 (stereo partly drawn) [Compound 11],inhibition of LTA4 hydrolase (in words),LTA4 hydrolase [3],poor inhibitors
COC(=O)C(S)[C@H](N)Cc1ccccc1 (stereo partly drawn) [Compound 12],inhibition of LTA4 hydrolase (in words),LTA4 hydrolase [3],poor inhibitors
NC(Cc1ccccc1)P(=O)(O)NCC(=O)O (stereo not drawn) [Compound 16],inhibition of LTA4 hydrolase (in words),LTA4 hydrolase [3],a much weaker inhibitor than Compound 8
CCOC(=O)CC(F)(F)C(=O)/C=C/c1ccccc1 [Compound 17],inhibition of the enzyme at 1 mM concentration (in words),LTA4 hydrolase [3],did not inhibit the enzyme
CCOC(=O)C(F)(F)C(=O)c1nc[nH]c1C [Compound 18],inhibition of the enzyme at 1 mM concentration (in words),LTA4 hydrolase [3],did not inhibit the enzyme
same,IC50,LTA4 hydrolase [3]; footnote d: less than 10 percent inhibition was observed at this concentration,> 1000 µM
N[C@@H](Cc1ccccc1)[C@H](O)C(=O)OCc1ccccc1 [Compound 20],IC50,[2]; [15],100 µM
same,inhibition of LTA4 hydrolase (in words),LTA4 hydrolase [3],bound more tightly than the amide
same,IC50,LTA4 hydrolase [3]; [14],0.8 µM
COC(=O)C(=O)[C@@H](N)Cc1ccccc1 [Compound 21],inhibition at 10 µM,Thromboxane B2 (TXB2); [11],0%
same,inhibition at 10 µM,Leukotriene B4 (LTB4); [13],8%
same,inhibition of LTA4 hydrolase (in words),LTA4 hydrolase [3],comparable with Compound 2
same,IC50,LTA4 hydrolase [3]; [14],80 µM
CC(C)C[C@H](NC(=O)C(=O)[C@@H](N)Cc1ccccc1)C(=O)O [Compound 22],inhibition of LTA4 hydrolase (in words),LTA4 hydrolase [3],better than the corresponding α-(S)--OH derivative Compound 7
same,IC50,LTA4 hydrolase [3]; [14],0.5 µM
COC(=O)[C@@H](O)[C@@H](N)Cc1ccc(OCc2ccccc2)cc1 [Compound 23],IC50,LTA4 hydrolase [3]; [14],20 µM
N[C@@H](Cc1ccc(OCc2ccccc2)cc1)C(=O)C(=O)OCc1ccccc1 [Compound 26],IC50,[4],> 100 µM
same,inhibition at 1 µM,"Thromboxane B2 (TXB2); read-out: % Inhibition TXB2, Table 3, 1 μM",8%
same,inhibition at 3 µM,"Thromboxane B2 (TXB2); read-out: % Inhibition TXB2, Table 3, 3 μM",7%
same,inhibition at 10 µM,"Thromboxane B2 (TXB2); read-out: % Inhibition TXB2, Table 3, 10 μM",28%
same,inhibition at 1 µM,Leukotriene B4 (LTB4); [16],15%
same,inhibition at 3 µM,Leukotriene B4 (LTB4); [16],17%
same,inhibition at 10 µM,Leukotriene B4 (LTB4); [16],24%
"NC(CSSCC(N)Cc1ccc(OCc2ccccc2)cc1)Cc1ccc(OCc2ccccc2)cc1 [Compound 27a, Di-((2S)-3-[4-(benzyloxy)phenyl]-2-amino-propane)-disulphide HCl]",inhibition at 10 µM,Thromboxane B2 (TXB2); [11],24%
same,inhibition at 10 µM,Leukotriene B4 (LTB4); [13],100%
same,IC50,"Leukotriene B4 (LTB4); concentrations of about 0.3-10 μM, readout not restated, read-out: IC50 in this assay (human blood)",~810 nM
N[C@@H](Cc1ccc(OCc2ccccc2)cc1)C(=O)c1cccc(C(=O)O)c1 [Compound 28],inhibition at 10 µM,Thromboxane B2 (TXB2); [11],0%
same,inhibition at 10 µM,Leukotriene B4 (LTB4); [13],16%
same,IC50,LTA4 hydrolase [3]; [14],3 µM
N[C@@H](Cc1ccc(OCc2ccccc2)cc1)C(=O)c1ccc(C(F)(F)F)cc1 [Compound 29],IC50,[2]; [15],> 100 µM
same,inhibition at 10 µM,Thromboxane B2 (TXB2); [11],0%
same,IC50,LTA4 hydrolase [3]; [14],10 µM
N[C@@H](Cc1ccccc1)C(=O)Cc1ccccc1 [Compound 30],IC50,[2]; [15],> 100 µM
same,inhibition at 10 µM,Thromboxane B2 (TXB2); [11],6%
same,inhibition at 10 µM,Leukotriene B4 (LTB4); [13],15%
same,Ki,LTA4 hydrolase [3]; [7],14 µM
"N[C@@H](Cc1ccccc1)[C@H](O)Cc1ccccc1 [Compound 44, (2R, 3S)-1,4-Diphenyl-2-hydroxy-3-amino-butane HCl]",IC50,LTA4 hydrolase [3]; [14],140 µM
"N[C@@H](Cc1ccccc1)C(=O)CCCC(=O)O [Compound 45, (6S) -5-Oxo-6-amino-7-phenyl-heptanoic acid HCl]",inhibition at 10 µM,Thromboxane B2 (TXB2); [11],12%
same,inhibition at 10 µM,Leukotriene B4 (LTB4); [13],11%
same,IC50,LTA4 hydrolase [3]; [14],20 µM
"N[C@@H](Cc1ccc(OCc2ccccc2)cc1)C(=O)CCCc1ccccc1 [Compound 54, (2S)-1-[4-(Benzyloxy)phenyl]-6-phenyl-2-amino-3-oxo-hexane HCl]",IC50,LTA4 hydrolase [3]; [7],0.03 µM
"NC[C@@H](N)Cc1ccc(OCc2ccc3ccccc3c2)cc1 [Compound 60, (2S) -3-[4-(2-Naphthylmethyloxy)phenyl]-1,2-diamino-propane HCl]",IC50,LTA4 hydrolase [3]; [14],0.55 µM
"C[C@@H](N)C(=O)Nc1ccc([N+](=O)[O-])cc1 [D-Ala p-nitroanilide, D-Alanine p-nitroanilide]",acceptance as substrate for LTA4 hydrolase (in words),LTA4 hydrolase [5],not acceptable
same,Vmax,LTA4 hydrolase [5]; [17],0 nmol/min/mg
"C[C@H](N)C(=O)Nc1ccc([N+](=O)[O-])cc1 [L-Ala p-nitroanilide, L-alanine p-nitroanilide]",acceptance as substrate for LTA4 hydrolase (in words),LTA4 hydrolase [5],the best
CCCCCCCC\C=C/C=C/C=C/[C@@H]1O[C@H]1CCCC(=O)O [LTA3],"inhibition of LTA4 hydrolase, type of inhibition (in words)",LTA4 hydrolase [1],irreversibly inhibited
"CCCCC/C=C\C\C=C/C=C/C=C/[C@@H]1O[C@H]1CCCC(=O)O [LTA4, 5(S)-5,6-oxido-7,9-trans-11,14-cis-eicosatetraenoic acid]",Vmax reported for native LTA4 hydrolase,LTA4 hydrolase [6],1.7 to 3.0 µmol/min/mg
same,Km,"LTA4 hydrolase [6]; native LTA4 hydrolase, read-out: Km reported for native LTA4 hydrolase",7 to 30 µM
same,"inhibition of LTA4 hydrolase, type of inhibition (in words)",LTA4 hydrolase [1],irreversibly inhibited
same,kcat /Km,LTA4 hydrolase [5]; [17],9.0 × 10^4 M^- x^-1
CC/C=C\C/C=C\C\C=C/C=C/C=C/[C@@H]1O[C@H]1CCCC(=O)O [LTA5],"inhibition of LTA4 hydrolase, type of inhibition (in words)",LTA4 hydrolase [1],irreversibly inhibited
"COC(=O)[C@@H](O)[C@H](Cc1ccccc1)NC(=O)OC(C)(C)C [N-Boc-2S, 3S)-AHPA methyl ester, N-Boc-(2S, 3S) -AHPA methyl ester]",inhibition of LTA4 hydrolase (in words),LTA4 hydrolase [3],no inhibition activity
